According to patent publication US6552080B1, “Fungicidal compounds having a fluorovinyl-or fluoropropenyl-oxyphenyloxime moiety and process for the preparation thereof” (Korea Research Institute of Chemical Technology, priority 1999, dated 2003):
Like-named read-outs stand apart in the source and are kept apart here.

Key:
Botrytis cinerae = experiment: Fungicidal activity against Cucumber Gray Mold Rot (CGM) disease; format: in vivo; details: for Fungicidal Activities CGM (C.V.): 50 ppm; for CGM (Fungicidal Activities, C.V.): Cucumber Gray Mold Rot
Erysiphae graminis = experiment: Fungicidal activity against Barley Powdery Mildew (BPM) disease; format: in vivo; details: for BPM (Fungicidal Activities, C.V.): Barley Powdery Mildew
[1] = test system: Pyricularia oryzae Carvara KA301; format: in vivo; details: for RCV (Fungicidal Activities, C.V.): Rice Blast
Rhizoctonia solani AG-1 = experiment: Fungicidal activity against Rice Sheath Blight (RSB) disease; details: for RSB (Fungicidal Activities, C.V.): Rice Sheath Blight
Puccinia recondita = experiment: Fungicidal activity against Wheat Leaf Rust (WLR) disease; format: in vivo; details: for WLR (Fungicidal Activities, C.V.): Wheat Leaf Rust
Phytophthora infestans = format: in vivo; details: for TLB (Fungicidal Activities, C.V.): Tomato Late Blight

SMILES | CGM (Fungicidal Activities, C.V.) (Botrytis cinerae; concentration 50 ppm) | BPM (Fungicidal Activities, C.V.) (Erysiphae graminis; concentration 2 ppm) | BPM (Fungicidal Activities, C.V.) (Erysiphae graminis; concentration 50 ppm) | RCV (Fungicidal Activities, C.V.) ([1]; concentration 2 ppm) | RCV (Fungicidal Activities, C.V.) ([1]; concentration 50 ppm) | RSB (Fungicidal Activities, C.V.) (Rhizoctonia solani AG-1; concentration 50 ppm) | WLR (Fungicidal Activities, C.V.) (Puccinia recondita; concentration 2 ppm) | WLR (Fungicidal Activities, C.V.) (Puccinia recondita; concentration 50 ppm) | TLB (Fungicidal Activities, C.V.) (Phytophthora infestans; concentration 50 ppm) | BPM (Fungicidal Activities, C.V.) (Erysiphae graminis; concentration 10 ppm) | RCV (Fungicidal Activities, C.V.) ([1]; concentration 10 ppm) | WLR (Fungicidal Activities, C.V.) (Puccinia recondita; concentration 10 ppm) | RSB (Fungicidal Activities, C.V.) (Rhizoctonia solani AG-1; concentration 2 ppm) | TLB (Fungicidal Activities, C.V.) (Phytophthora infestans; concentration 2 ppm) | further results
CON=C(C(=O)OC)c1ccccc1CON=C(C)c1cccc(OC(F)=C(c2cc(Cl)cc(Cl)c2)C(F)(F)F)c1 [Compound 186] | – | – | – | – | – | – | – | – | – | – | – | – | – | – | Fungicidal Activities CGM (C.V.) (Botrytis cinerae): 25%; Fungicidal Activities BPM (C.V.) (Erysiphae graminis; 2 ppm): 86%; Fungicidal Activities BPM (C.V.) (Erysiphae graminis; 50 ppm): 100%; Fungicidal Activities RCV (C.V.) ([1]; 2 ppm): 73%; Fungicidal Activities RCV (C.V.) ([1]; 50 ppm): 83%; Fungicidal Activities RSB (C.V.) (Rhizoctonia solani AG-1; 2 ppm): 15%; Fungicidal Activities RSB (C.V.) (Rhizoctonia solani AG-1; 50 ppm): 50%; Fungicidal Activities WLR (C.V.) (Puccinia recondita; 2 ppm): 66%; Fungicidal Activities WLR (C.V.) (Puccinia recondita; 50 ppm): 99%; Fungicidal Activities TLB (C.V.) (Phytophthora infestans; 2 ppm): 0%; Fungicidal Activities TLB (C.V.) (Phytophthora infestans; 50 ppm): 0%
CNC(=O)C(=NOC)c1ccccc1CON=Cc1cccc(OC(F)=C(c2cccc(OC)c2)C(F)(F)F)c1 [Compound 143] | 0% | 0% | 93% | 83% | 100% | 58% | 36% | 90% | 0% | – | – | – | – | – | –
COC=C(C(=O)OC)c1ccccc1CON=Cc1cccc(OC(F)=Cc2ccc(F)cc2)c1 [Compound 12] | 52% | 98% | 100% | 33% | 98% | 70% | 100% | 100% | 83% | 100% | 93% | 100% | – | – | –
COC=C(C(=O)OC)c1ccccc1CON=C(C)c1cccc(OC(F)=C(c2cc(Cl)cc(Cl)c2)C(F)(F)F)c1 [Compound 164] | – | – | – | – | – | – | – | – | – | – | – | – | – | – | Fungicidal Activities CGM (C.V.) (Botrytis cinerae): 36%; Fungicidal Activities BPM (C.V.) (Erysiphae graminis; 2 ppm): 71%; Fungicidal Activities BPM (C.V.) (Erysiphae graminis; 10 ppm): 99%; Fungicidal Activities BPM (C.V.) (Erysiphae graminis; 50 ppm): 100%; Fungicidal Activities RCV (C.V.) ([1]; 50 ppm): 41%; Fungicidal Activities RSB (C.V.) (Rhizoctonia solani AG-1; 50 ppm): 20%; Fungicidal Activities WLR (C.V.) (Puccinia recondita; 2 ppm): 60%; Fungicidal Activities WLR (C.V.) (Puccinia recondita; 10 ppm): 95%; Fungicidal Activities WLR (C.V.) (Puccinia recondita; 50 ppm): 96%; Fungicidal Activities TLB (C.V.) (Phytophthora infestans; 50 ppm): 0%
COC=C(C(=O)OC)c1ccccc1CON=C(C)c1cccc(OC(F)=Cc2ccc(C)cc2)c1 [Compound 42] | 64% | 100% | 100% | 58% | 100% | 70% | 98% | 100% | 97% | 100% | 96% | 100% | – | – | –
CNC(=O)/C(=N/OC)c1ccccc1CON=C(C)c1cccc(OC(F)=Cc2ccccc2)c1 [Compound 77] | 85% | 100% | 100% | 100% | 100% | 100% | 100% | 100% | 80% | 100% | 100% | 100% | 40% | 50% | CGM (Fungicidal Activities, C.V.) (Botrytis cinerae; concentration 2 ppm): 21%; CGM (Fungicidal Activities, C.V.) (Botrytis cinerae; concentration 10 ppm): 36%; RSB (Fungicidal Activities, C.V.) (Rhizoctonia solani AG-1; concentration 10 ppm): 57%; TLB (Fungicidal Activities, C.V.) (Phytophthora infestans; concentration 10 ppm): 88%
CCc1ccc(C=C(F)Oc2cccc(C(C)=NOCc3ccccc3C(=NOC)C(=O)NC)c2)cc1 [Compound 79] | 80% | 100% | 100% | 99% | 100% | 65% | 98% | 100% | 82% | – | – | – | 35% | 43% | –
CON=C(C(=O)OC)c1ccccc1CON=C(C)c1cccc(OC(F)=C(c2cccc(F)c2)C(F)(F)F)c1 [Compound 182] | – | – | – | – | – | – | – | – | – | – | – | – | – | – | Fungicidal Activities CGM (C.V.) (Botrytis cinerae): 77%; Fungicidal Activities BPM (C.V.) (Erysiphae graminis; 2 ppm): 96%; Fungicidal Activities BPM (C.V.) (Erysiphae graminis; 50 ppm): 100%; Fungicidal Activities RCV (C.V.) ([1]; 2 ppm): 95%; Fungicidal Activities RCV (C.V.) ([1]; 50 ppm): 95%; Fungicidal Activities RSB (C.V.) (Rhizoctonia solani AG-1; 2 ppm): 30%; Fungicidal Activities RSB (C.V.) (Rhizoctonia solani AG-1; 50 ppm): 50%; Fungicidal Activities WLR (C.V.) (Puccinia recondita; 2 ppm): 95%; Fungicidal Activities WLR (C.V.) (Puccinia recondita; 50 ppm): 100%; Fungicidal Activities TLB (C.V.) (Phytophthora infestans; 2 ppm): 62%; Fungicidal Activities TLB (C.V.) (Phytophthora infestans; 50 ppm): 40%
CON=C(C(=O)OC)c1ccccc1CON=Cc1cccc(OC(F)=C(c2ccccc2)C(F)(F)F)c1 [Compound 131] | 42% | 76% | 100% | 43% | 80% | 55% | 98% | 100% | 4% | – | – | – | – | – | –
COC=C(C(=O)OC)c1ccccc1CON=Cc1cccc(OC(F)=Cc2cccc(C)c2)c1 [Compound 2] | 17% | 98% | 100% | 33% | 93% | 60% | 97% | 100% | 85% | 99% | 86% | 100% | – | – | –
CON=C(C(=O)OC)c1ccccc1CON=C(C)c1cccc(OC(F)=Cc2cccc(OC)c2)c1 [Compound 71] | 25% | 100% | 100% | 100% | 100% | 100% | 98% | 100% | 50% | – | – | – | 35% | 25% | –
CCc1ccc(C=C(F)Oc2cccc(C(C)=NOCc3ccccc3C(=NOC)C(=O)OC)c2)cc1 [Compound 69] | 25% | 99% | 100% | 100% | 100% | 100% | 97% | 100% | 60% | – | – | – | 30% | 25% | –
CNC(=O)C(=NOC)c1ccccc1CON=Cc1cccc(OC(F)=C(c2cccc(C)c2)C(F)(F)F)c1 [Compound 140] | 0% | – | 86% | 86% | 97% | 64% | 0% | 100% | 0% | – | – | – | – | – | –
